In ChEMBL document CHEMBL1201862, “PubChem BioAssay data set” (2004):
Activity calls are given as the source filed them. For most assays here, no stated cut-off is given here; in the data, actives have a measured AC50 and inactives only a lower limit.

Columns and labels:
INS1 = experiment: beta cell apoptosis inhibitors, cytokine rescue, dose response, luminescence, retest (AID 449756); format: functional, cell-based; settings: Rattus norvegicus;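 further: cell death triggered by IL-1 beta plus TNF-alpha plus IFN-gamma mixture; protective hits raise ATP signal compared with cytokine alone wells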
[1] = target: T1, Apoptotic protease-activating factor 1 (Homo sapiens, UniProt O14727); format: functional
T1 sequence (O14727 whole entry): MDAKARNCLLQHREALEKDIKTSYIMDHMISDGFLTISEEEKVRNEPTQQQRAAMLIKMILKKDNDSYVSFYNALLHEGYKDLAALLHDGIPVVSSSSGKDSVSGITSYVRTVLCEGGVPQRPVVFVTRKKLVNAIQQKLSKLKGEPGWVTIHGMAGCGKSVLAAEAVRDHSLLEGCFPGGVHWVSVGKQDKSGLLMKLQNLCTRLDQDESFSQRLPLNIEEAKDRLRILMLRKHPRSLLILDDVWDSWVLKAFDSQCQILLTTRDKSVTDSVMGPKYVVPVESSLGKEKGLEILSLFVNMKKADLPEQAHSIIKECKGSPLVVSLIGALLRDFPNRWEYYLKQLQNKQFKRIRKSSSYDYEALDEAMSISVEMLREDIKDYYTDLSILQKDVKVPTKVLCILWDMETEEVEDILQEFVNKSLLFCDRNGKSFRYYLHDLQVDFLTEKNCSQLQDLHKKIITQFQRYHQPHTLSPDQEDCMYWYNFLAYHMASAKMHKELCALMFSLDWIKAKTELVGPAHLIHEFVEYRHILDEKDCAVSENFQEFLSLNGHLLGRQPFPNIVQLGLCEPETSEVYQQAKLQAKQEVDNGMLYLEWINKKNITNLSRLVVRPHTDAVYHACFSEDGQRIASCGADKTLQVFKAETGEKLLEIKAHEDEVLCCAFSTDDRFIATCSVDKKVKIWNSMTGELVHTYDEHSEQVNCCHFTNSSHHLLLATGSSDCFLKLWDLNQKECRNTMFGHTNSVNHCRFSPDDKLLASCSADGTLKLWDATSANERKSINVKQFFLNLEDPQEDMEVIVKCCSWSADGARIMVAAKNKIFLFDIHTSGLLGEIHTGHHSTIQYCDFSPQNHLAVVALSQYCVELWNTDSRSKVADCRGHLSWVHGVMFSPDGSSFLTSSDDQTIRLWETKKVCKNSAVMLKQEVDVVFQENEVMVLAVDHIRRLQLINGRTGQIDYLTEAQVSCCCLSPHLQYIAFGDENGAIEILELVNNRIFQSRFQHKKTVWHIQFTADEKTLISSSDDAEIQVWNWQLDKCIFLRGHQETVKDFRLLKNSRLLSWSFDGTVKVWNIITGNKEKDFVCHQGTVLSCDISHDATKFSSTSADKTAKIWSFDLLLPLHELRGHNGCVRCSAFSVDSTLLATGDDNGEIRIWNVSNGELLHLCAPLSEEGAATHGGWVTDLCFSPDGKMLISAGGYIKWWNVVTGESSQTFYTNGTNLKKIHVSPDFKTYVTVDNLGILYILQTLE

[2] = target: T2, Histone-lysine N-methyltransferase NSD2 (Homo sapiens, UniProt O96028); format: biochemical
T2 sequence (O96028 whole entry): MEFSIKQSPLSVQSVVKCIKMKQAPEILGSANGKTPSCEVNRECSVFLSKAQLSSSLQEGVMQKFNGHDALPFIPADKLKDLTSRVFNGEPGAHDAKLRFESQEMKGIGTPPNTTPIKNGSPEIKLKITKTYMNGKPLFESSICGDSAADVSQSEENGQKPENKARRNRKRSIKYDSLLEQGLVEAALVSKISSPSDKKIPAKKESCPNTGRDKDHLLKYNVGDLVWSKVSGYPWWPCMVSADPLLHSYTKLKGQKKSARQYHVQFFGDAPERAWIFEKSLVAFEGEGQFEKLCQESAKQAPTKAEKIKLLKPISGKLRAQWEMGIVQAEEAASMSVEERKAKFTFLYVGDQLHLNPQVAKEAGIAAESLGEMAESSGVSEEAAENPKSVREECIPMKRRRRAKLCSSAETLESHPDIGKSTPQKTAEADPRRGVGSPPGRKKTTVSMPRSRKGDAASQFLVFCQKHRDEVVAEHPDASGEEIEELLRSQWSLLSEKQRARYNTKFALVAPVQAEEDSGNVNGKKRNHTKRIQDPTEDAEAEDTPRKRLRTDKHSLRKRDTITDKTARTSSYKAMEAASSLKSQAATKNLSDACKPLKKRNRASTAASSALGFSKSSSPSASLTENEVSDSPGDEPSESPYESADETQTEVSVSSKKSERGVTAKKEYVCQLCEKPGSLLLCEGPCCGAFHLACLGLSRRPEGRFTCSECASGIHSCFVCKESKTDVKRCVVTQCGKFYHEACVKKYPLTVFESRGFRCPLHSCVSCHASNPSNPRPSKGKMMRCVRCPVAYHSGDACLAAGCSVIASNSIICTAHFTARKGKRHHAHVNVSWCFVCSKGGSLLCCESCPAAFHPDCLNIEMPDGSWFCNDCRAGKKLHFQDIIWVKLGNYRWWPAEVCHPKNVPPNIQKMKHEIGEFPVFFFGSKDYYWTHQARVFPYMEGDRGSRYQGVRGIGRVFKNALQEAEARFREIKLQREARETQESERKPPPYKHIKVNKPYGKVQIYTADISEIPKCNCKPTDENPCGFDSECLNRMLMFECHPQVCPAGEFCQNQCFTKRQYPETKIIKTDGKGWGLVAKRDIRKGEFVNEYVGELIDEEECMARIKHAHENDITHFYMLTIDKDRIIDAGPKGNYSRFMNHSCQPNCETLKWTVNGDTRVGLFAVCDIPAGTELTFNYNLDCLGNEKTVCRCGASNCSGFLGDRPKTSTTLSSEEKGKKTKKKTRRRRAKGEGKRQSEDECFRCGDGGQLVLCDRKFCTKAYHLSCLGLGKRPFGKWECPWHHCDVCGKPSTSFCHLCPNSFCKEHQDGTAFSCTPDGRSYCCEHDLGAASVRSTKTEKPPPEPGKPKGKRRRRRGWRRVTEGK

Compound | AC50 (INS1) | IC50 [1] | AC50 [2]
Cc1cccc(NC2=C(NC(=O)c3ccccc3)C(=O)c3ccccc3C2=O)c1 | 7.52 µM (active) | 13.4 µM (active) | –
CC(C)=CCC1=C(OCC(=O)O)C(=O)c2ccccc2C1=O | – | 6.11 µM (active) | 3.99 µM (active)
Cc1[nH][nH]c(=O)c1C(c1c(C)[nH][nH]c1=O)c1cn(Cc2ccccc2Cl)c2ccccc12 | – | – | 17.8 µM (active)
